# Results: PubChem BioAssay AID812 (SRMLSC, 2007)
# Calls of active or inactive are those of the source. The rule behind the calls is not given here.
# Tested on: Saccharomyces cerevisiae lifespan extension, no nicotinamide
# Assay: yeast lifespan extension without nicotinamide, confirmation, yeast lifespan extension project, S. cerevisiae (AID 812);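 note: growth read as optical density after 42 hours of incubation at 30C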
row,SMILES,EC50
1,CN1C(=O)C(C(=O)Nc2ccccc2F)c2ccccc21 (stereo not drawn),> 40 µM (inactive)
2,O=C(NCc1ccc(Cl)cc1)c1ccccc1CCc1ccccc1,> 40 µM (inactive)
3,CCOC(=O)c1c(NC(=O)C2C3C=CC(C3)C2C(=O)O)sc2c1CCC(CC)C2 (stereo not drawn),> 40 µM (inactive)
4,COc1cc(OC)cc(-c2nc3ccccc3c(=O)n2OC(=O)c2ccc(C)c(C)c2)c1,> 40 µM (inactive)
5,CC1CCc2cc(F)cc3c(O)c(C(=O)NCc4ccco4)c(=O)n1c23 (stereo not drawn),> 40 µM (inactive)
6,O=C1c2ccccc2C(=O)N1c1ncc(Cc2ccc(Cl)cc2)s1,> 40 µM (inactive)
7,COc1ccc(C2CC23N=C(c2ccccc2)OC3=O)cc1 (stereo not drawn),> 40 µM (inactive)
8,CC(=O)Nc1nc(C)c(Oc2ccccc2)c(=O)[nH]1,> 40 µM (inactive)
9,CCCCn1c(=O)c(C(=O)Nc2cnccn2)c(O)c2ccccc21,> 40 µM (inactive)
10,Cc1cc(C)c(S(=O)(=O)c2ccccc2)c(OC(=O)c2cc(F)c(F)cc2Cl)n1,> 40 µM (inactive)
11,CCCCCC1CC1C(=O)N/N=C/c1ccc(N(C)C)cc1 (stereo not drawn),> 40 µM (inactive)
12,CCOC(=O)C1C(c2cccs2)NC(=O)N(C)C1(O)C(F)(F)F (stereo not drawn),> 40 µM (inactive)
13,Cc1cc(C)c(S(=O)(=O)c2ccccc2)c(OC(=O)c2ccc(Cl)cc2Cl)n1,> 40 µM (inactive)
14,CN(Cc1c(O)ccc2c1oc(=O)c1ccccc12)C1CCCCC1,> 40 µM (inactive)
15,O=C(CCl)c1ccc(Cc2ncc(C(F)(F)F)cc2Cl)s1,> 40 µM (inactive)
16,CC1CC(C)CN(S(=O)(=O)c2cccc(C(=O)N3C(=O)c4cccc(N)c4C3=O)c2)C1 (stereo not drawn),> 40 µM (inactive)
17,Cc1ccc(-c2nc3ccc(Cl)cc3n2OC(=O)N(C)C)cc1,> 40 µM (inactive)
18,O=C(Nc1ccc(S(=O)(=O)N2CCc3ccccc3C2)cc1)c1ccccc1,> 40 µM (inactive)
19,COc1cc(OC)cc(-c2nc3ccccc3c(=O)n2OC(=O)c2ccccc2C)c1,> 40 µM (inactive)
20,CCOC(=O)C1=C(N)OC2=C(C(=O)CCC2)C1c1sccc1C (stereo not drawn),> 40 µM (inactive)
21,C=CS(=O)(=O)c1ccc(Oc2ccc(S(=O)(=O)C=C)cc2)cc1,> 40 µM (inactive)
22,COCCn1c(SCC(=O)Nc2ccc(C)cc2)nc2c(oc3ccccc32)c1=O,> 40 µM (inactive)
23,CC(=NCCc1c(C)[nH]c2ccc(C)cc12)C1=C(O)CC(c2ccccc2)CC1=O (stereo not drawn),> 40 µM (inactive)
24,CCOc1ccc2nc(NCCNC(=O)Nc3ccccc3)c(C#N)cc2c1,> 40 µM (inactive)
25,O=C(COc1ccc([N+](=O)[O-])cc1)N(Cc1ccccc1)Cc1ccccc1,> 40 µM (inactive)

row,SMILES,EC50
1,CC(C)C(c1nnnn1Cc1ccccc1)N1CCN(Cc2ccc3c(c2)OCO3)CC1 (stereo not drawn),> 40 µM (inactive)
2,COc1ccc(CNC(=O)c2c(O)c3cccc4c3n(c2=O)CCC4)cc1,> 40 µM (inactive)
3,O=C(NC(=S)Nc1nc2c(s1)CSc1ccccc1-2)c1ccccc1,> 40 µM (inactive)
4,COc1ccc(-c2cc(C(F)(F)F)nc(S(C)(=O)=O)n2)cc1,> 40 µM (inactive)
5,CCOc1ccc(/C=C2/C(=O)NC(=O)N(CCc3ccc(F)cc3)C2=O)cc1,> 40 µM (inactive)
6,CC(c1ccco1)N(C(=O)c1ccccc1NS(=O)(=O)c1cc([N+](=O)[O-])ccc1Cl)c1ccccn1 (stereo not drawn),> 40 µM (inactive)
7,O=C(NCc1ccco1)c1cc(C(=O)C2CCCCC2)c[nH]1,> 40 µM (inactive)
8,CC(=Nc1ccc2c(c1)nc(CO)n2C)C1=C(O)CC(C)(C)CC1=O,> 40 µM (inactive)
9,CCCCOC(=O)CSc1nc2c(c(=O)[nH]c(=O)n2C)n1C/C=C(\C)Cl,> 40 µM (inactive)
10,O=c1c2ccccc2nc(-c2cccc(Cl)c2)n1O,> 40 µM (inactive)
11,CC1(C)CC(=O)C2=C(C1)OC1=C(C(=O)CC(C)(C)C1)C2c1ccc(O)cc1O,> 40 µM (inactive)
12,C=CCn1c(C)cc(C(=O)CSc2nc3ccccc3c(=O)[nH]2)c1C,> 40 µM (inactive)
13,CS(=O)(=O)Oc1ccc(Br)cc1/C=C1/N=C(c2ccco2)OC1=O,> 40 µM (inactive)
14,COC(=O)CCS(=O)(=O)c1nc(-c2ccccc2)cc(C(F)(F)F)n1,> 40 µM (inactive)
15,O=C1CC(c2ccccc2)CC(O)=C1C=NCCN1CCOCC1 (stereo not drawn),> 40 µM (inactive)
16,CN1OC(c2ccccc2)=C(CO)C1c1ccccc1 (stereo not drawn),> 40 µM (inactive)
17,CC(C)(C)C(=O)Cn1c(=N)n(Cc2ccccc2)c2ccccc21,> 40 µM (inactive)
18,COCCN(CCOC)S(=O)(=O)c1ccc(C(=O)Nc2sc3c(c2C(N)=O)CCCCC3)cc1,> 40 µM (inactive)
19,CCCCC1C(=O)CC[C@H]2[C@@H]1CC(=O)[C@@H]2C/C=C\CCCC(=O)O (stereo partly drawn),> 40 µM (inactive)
20,C=CCn1c(O)c(C(CC)=NCCN2CCOCC2)c(=O)[nH]c1=O,> 40 µM (inactive)
21,CCOC(=O)CSC1=NC(=O)/C(=C/c2ccc(OC)cc2)S1,> 40 µM (inactive)
22,C/C(=N\NC(=O)c1ccccc1O)c1c(O)cc(C)oc1=O,> 40 µM (inactive)
23,O=C1NCC2=C1C(c1ccc(Br)cc1)Nc1ccccc1N2 (stereo not drawn),> 40 µM (inactive)
24,COc1ccc(CC(=O)Nc2ccc3c(c2)CCC3)cc1S(=O)(=O)N1CCOCC1,> 40 µM (inactive)
25,Cn1c(SCC(=O)N2CCCc3ccccc32)nnc1-c1c[nH]c2ccccc12,> 40 µM (inactive)

row,SMILES,EC50
1,O=C1C(C2=C(O)c3ccccc3C2=O)=Nc2ccccc21,> 40 µM (inactive)
2,CCOC(=O)c1nnn(-c2nonc2N)c1CN1CCc2ccccc2C1,> 40 µM (inactive)
3,Cc1nc(SC(C)C)[nH]c(=O)c1Cc1ccccc1,> 40 µM (inactive)
4,Cc1ccc(/C=C/C(=O)C2C(=O)c3ccccc3C2=O)cc1,> 40 µM (inactive)
5,CCc1oc2ccccc2c1C(=O)CCN1CCCCC1,> 40 µM (inactive)
6,CC(C)(C)OC(=O)[C@H]1[C@H](c2ccc([N+](=O)[O-])cc2)C2(C(=O)c3ccccc3C2=O)C2c3ccccc3C=NN21 (stereo partly drawn),> 40 µM (inactive)
7,CCC1C/C(=C\c2cccnc2)C(=O)/C(=C/c2cccnc2)C1 (stereo not drawn),> 40 µM (inactive)
8,Cc1ccc(/C(O)=C2\C(=O)C(=O)N(c3cc(C)on3)C2c2cccc(Cl)c2)cc1 (stereo not drawn),> 40 µM (inactive)
9,O=[N+]([O-])c1c(C(Cl)Cl)nn(-c2ccccc2)c1N1CCCC1,> 40 µM (inactive)
10,COC(=O)C1=C(C(=O)OC)SC(=C2C(=S)C(C)(C)N(C(=O)C(C)C)c3ccccc32)S1,> 40 µM (inactive)
11,Cc1cc(C)n(-c2ccc(OCC(=O)O)nn2)n1,> 40 µM (inactive)
12,Cc1ccc2[nH]c3c(c2c1)CC/C(=C/c1ccccc1)C3=O,> 40 µM (inactive)
13,O=C(Cn1nc(Cl)nc1Cl)c1cc2ccccc2oc1=O,> 40 µM (inactive)
14,N=c1c2c(-c3ccccc3)c(-c3ccccc3)n(Cc3ccco3)c2ncn1CCCn1ccnc1,> 40 µM (inactive)
15,COc1ccc(C(=O)C(CN2CCOCC2)c2ccccc2)cc1 (stereo not drawn),> 40 µM (inactive)
16,Cc1ccc(NC(=O)Nc2nc(-c3ccc(C)s3)cs2)cc1,> 40 µM (inactive)
17,COn1c(SC2CCCCC2)nc2ccccc2c1=O,> 40 µM (inactive)
18,CCc1c(C)c(C#N)c2nc3ccccc3n2c1Cl,> 40 µM (inactive)
19,N#C/C(=C\c1ccccc1)C(=O)N(c1ccccn1)C1CCCCC1,> 40 µM (inactive)
20,CCCCCCCCn1c(=O)c(C(=O)OCC)c(O)c2ccccc21,> 40 µM (inactive)
21,O=c1[nH]c2ccccc2nc1Cc1ccccc1,> 40 µM (inactive)
22,CN(C)/C=C(/C(=O)c1ccc(Cl)cc1Cl)S(=O)(=O)c1ccccc1,> 40 µM (inactive)
23,COc1ccccc1CNC(=O)C(CCSC)NS(=O)(=O)c1ccc2c(c1)oc(=O)n2C (stereo not drawn),> 40 µM (inactive)
24,Cc1ccc(C(=O)OC2=CC(=O)CC(C)(C)C2)cc1,> 40 µM (inactive)
25,O=S(=O)(Nc1cccc2c1CCCC2)c1ccc(Cl)cc1,> 40 µM (inactive)

row,SMILES,EC50
1,COc1ccc(C(=O)On2c(-c3ccc(Br)cc3)nc3ccccc3c2=O)cc1,> 40 µM (inactive)
2,Cc1ccc(OCC(=O)c2c(O)c3ccccc3oc2=O)cc1C,> 40 µM (inactive)
3,Cn1nnnc1SCCNCC#Cc1ccccc1,> 40 µM (inactive)
4,COc1ccc(-c2cc(C(F)(F)F)nc(S(C)(=O)=O)n2)cc1OC,> 40 µM (inactive)
5,Cc1ccnc(-n2c(C)cc(/C=C3\C(=O)NC(=S)N(C)C3=O)c2C)c1,> 40 µM (inactive)
6,C=C(C)CN(CC)C(=O)COc1ccc(S(=O)(=O)Nc2ccc(OC)cc2)cc1,> 40 µM (inactive)
7,COc1ccc(C(=O)C(CN2CCOCC2)c2ccccc2)cc1F (stereo not drawn),> 40 µM (inactive)
8,Cc1nc2c(=O)n(C)c(=O)n(C)c2nc1Cl,> 40 µM (inactive)
9,CCOC(=O)C1=C(C)Nc2nc(=S)[nH]n2C1c1ccc(Cl)cc1 (stereo not drawn),> 40 µM (inactive)
10,O=C(Oc1cc(=O)n2ccccc2n1)c1ccccc1,> 40 µM (inactive)
11,CCCN1C(=O)/C(=C/c2ccncc2)SC1=S,> 40 µM (inactive)
12,Cc1c(O)c(S(=O)c2ccccc2)c(=O)n(-c2ccccc2)c1-c1ccccc1 (stereo not drawn),> 40 µM (inactive)
13,COC(=O)C1=C(C(=O)OC)C(c2ccccc2O)c2sc(=O)[nH]c2S1 (stereo not drawn),> 40 µM (inactive)
14,CN(C)C=C1C(=O)N(C2CCCCC2)C(=O)N(C2CCCCC2)C1=O,> 40 µM (inactive)
15,O=S(=O)(Nc1nc2ccccc2nc1Cl)c1ccc2ccccc2c1,> 40 µM (inactive)
16,CC1CCCN(c2nc3ccccc3nc2C(C#N)C(=O)OC2CCCCC2)C1 (stereo not drawn),> 40 µM (inactive)
17,CCOc1cc(Br)c(Br)c(C=Nc2ccc(NC(C)=O)cc2)c1O,> 40 µM (inactive)
18,COc1ccc(CCN2C(=O)C(O)=C(C(=O)c3ccco3)C2c2cccs2)cc1OC (stereo not drawn),> 40 µM (inactive)
19,CCN1CCCC1CNC(=O)COc1cc(=O)n(C)c2ccccc12 (stereo not drawn),> 40 µM (inactive)
20,CCCCCOC(=O)CSc1nc2c(c(=O)[nH]c(=O)n2C)n1CCc1ccccc1,> 40 µM (inactive)
21,N#CSCC(=O)N1c2ccccc2CCc2ccccc21,> 40 µM (inactive)
22,Cc1ccc(/C=C2/C(=O)NC(=O)N(CCc3ccc(F)cc3)C2=O)o1,> 40 µM (inactive)
23,CN(C)c1ccc(S(=O)(=O)c2ccc(Cl)cc2)cc1,> 40 µM (inactive)
